In patent US20250177408A1, “INHIBITOR OF INTERACTION BETWEEN YAP/TAZ AND TEAD, PREPARATION THEREOF, PHARMACEUTICAL COMPOSITION THEREOF AND USE THEREOF” (ETERN BIOPHARMA (SHANGHAI) CO., LTD., priority 2022, published 2025):

These compounds were tested against YAP-TEAD protein interaction (His-TEAD1 (209-426) protein, Bio-YAP peptide (60-100)) (Homo sapiens, UniProt P28347) (assay: YAP-TEAD protein interaction HTRF experiment). Settings: His-TEAD1 (209-426) 10 nM, Bio-YAP peptide 50 nM, read-out: Activity of each compound in blocking YAP-TEAD protein interaction (grades of IC50 values).
YAP-TEAD protein interaction (His-TEAD1 (209-426) protein, Bio-YAP peptide (60-100)), sequence (P28347 209-426): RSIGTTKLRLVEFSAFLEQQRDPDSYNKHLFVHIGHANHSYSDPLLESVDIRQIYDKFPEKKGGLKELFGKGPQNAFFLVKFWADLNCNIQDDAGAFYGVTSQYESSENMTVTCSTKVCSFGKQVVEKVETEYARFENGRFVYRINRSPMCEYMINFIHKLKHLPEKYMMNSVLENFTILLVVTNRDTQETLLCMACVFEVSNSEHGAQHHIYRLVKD
Type: binding
Experimental: In this example, the YAP-TEAD protein interaction HTRF experiment was used to detect the activity of each compound in blocking the YAP-TEAD protein interaction.
The experiment was carried out according to the following operation steps:
Step 1: His-TEAD1 (209-426) protein was added to a 384-well detection white plate to a final concentration of 10 nM, and buffer was used as the background signal well. The compounds to be tested were subjected to 3-fold dilution and a total of 10 concentration gradients were set up, and each diluted solution was mixed well. A certain volume of the compound to be tested was added to each well separately, 2 replicates were set for each concentration, and the final concentration of DMSO was controlled at 1%. Incubation was carried out at room temperature for 20 minutes. The amino acid sequence of TAED1 (209-426) used in this step is shown in SEQ ID NO: 1:
After mixing evenly, the mixture was incubated at room temperature for 10 minutes.
Step 3: Anti-His-Eu cryptate gold and streptavidin-XL665 were diluted according to the instructions and mixed in equal proportions. A certain volume of the detection reagent was added to the well, and the mixture was incubated at room temperature for 1 hour.
Step 4: The signal was detected using an Envision (Perkin Elmer) microplate reader at an excitation wavelength of 320 nm and emission wavelengths of 665 nm and 620 nm.
Step 5: The signal was calculated based on the ratio of Em665/Em620*10000.
The inhibition percentage (%) was calculated using the following formula: […]
The half-maximal inhibitory concentration (IC50) values were calculated using GraphPad Prism software.

`N#CCC1Cc2cc(C(N)=O)c(-c3c(Cl)c(F)cc4c3C[C@](c3ccccc3)([C@@H]3CCCN3)O4)c(F)c2O1` (stereo partly drawn) [Compound I-55, (2S)-5-Chloro-2′-(cyanomethyl)-6,7′-difluoro-2-phenyl-2-((S)-pyrrolidin-2-yl)-2,2′,3,3′-tetrahydro-[4,6′-bibenzofuran]-5′-carboxamide] and `NC(=O)c1cc2c(c(F)c1-c1c(Cl)c(F)cc3c1C[C@](c1ccccc1)([C@@H]1CCCN1)O3)[C@@H](O)CC2` (atropisomer, axis not shown) [Compound I-57, (1S,6S)-6-((S)-5-Chloro-6-fluoro-2-phenyl-2-((S)-pyrrolidin-2-yl)-2,3-dihydrobenzofuran-4-yl)-7-fluoro-1-hydroxy-2,3-dihydro-1H-indene-5-carboxamide] cannot be ordered by IC50: under 50 nM for the first, under 50 nM for the second.

First: Cn1cc2c(n1)COc1c-2cc(C(N)=O)c(-c2c(Cl)c(F)cc3c2C[C@](c2ccccc2)([C@@H]2CC(O)CN2)O3)c1F (stereo partly drawn) [Compound 55, (7S)-7-((2S)-5-Chloro-6-fluoro-2-((2S)-4-hydroxypyrrolidin-2-yl)-2-phenyl-2,3-dihydrobenzofuran-4-yl)-6-fluoro-2-methyl-2,4-dihydrochromeno[3,4-c]pyrazole-8-carboxamide]
Second: Cn1cc2c(n1)COc1c-2cc(C(N)=O)c(-c2c(Cl)c(F)cc3c2C[C@](c2ccccc2)([C@@H]2CCCN2)O3)c1F (atropisomer, axis not shown) [Compound 3′, (R)-7-((S)-5-Chloro-6-fluoro-2-phenyl-2-((S)-pyrrolidin-2-yl)-2,3-dihydrobenzofuran-4-yl)-6-fluoro-2-methyl-2,4-dihydrochromeno[3,4-c]pyrazole-8-carboxamide]
The IC50 of the first is higher: 500 to 5000 nM for the first, 50 to 500 nM for the second.

`Cc1nnc2n1-c1cc(C(N)=O)c(-c3c(Cl)c(F)cc4c3C[C@](c3ccccc3)([C@@H]3CCCN3)O4)c(F)c1OC2` (atropisomer, axis not shown) [Compound 43, (S)-7-((S)-5-Chloro-6-fluoro-2-phenyl-2-((S)-pyrrolidin-2-yl)-2,3-dihydrobenzofuran-4-yl)-6-fluoro-1-methyl-4H-benzo[b][1,2,4]triazolo[4,3-d][1,4]oxazine-8-carboxamide] and `NC(=O)c1cc2c(c(F)c1-c1c(Cl)c(F)cc3c1C[C@](c1ccccc1)([C@@H]1CCCN1)O3)OCCO2` [Compound 1′, 7-((2S,4R)-5-Chloro-6-fluoro-2-phenyl-2-((S)-pyrrolidin-2-yl)-2,3-dihydrobenzofuran-4-yl)-8-fluoro-2,3-dihydrobenzo[b][1,4]dioxine-6-carboxamide] fall in the same range of IC50: 50 to 500 nM for the first, 50 to 500 nM for the second.

`NC(=O)c1cc2c(c(F)c1-c1c(Cl)c(F)cc3c1C[C@](c1ccccc1)([C@@H]1CCCN1)O3)OCCOC2` (atropisomer, axis not shown) [Compound I-54, (S)-8-((S)-5-Chloro-6-fluoro-2-phenyl-2-((S)-pyrrolidin-2-yl)-2,3-dihydrobenzofuran-4-yl)-9-fluoro-2,3-trihydro-5H-benzo[e][1,4]dioxa-7-carboxamide] and `CNC(=O)c1cc2c(c(F)c1-c1c(Cl)c(F)cc3c1C[C@](c1ccccc1)([C@@H]1CCCN1)O3)OCCN2` (atropisomer, axis not shown) [Compound I-26, (S)-7-((2S)-5-Chloro-6-fluoro-2-phenyl-2-((S)-pyrrolidin-2-yl)-2,3-dihydrobenzofuran-4-yl)-8-fluoro-N-methyl-3,4-dihydro-2H-benzo[b][1,4]oxazine-6-carboxamide] cannot be ordered by IC50: under 50 nM for the first, under 50 nM for the second.

With `NC(=O)c1cn2ccnc2c(F)c1-c1c(Cl)c(F)cc2c1C[C@](c1ccccc1)([C@@H]1CCCN1)O2` (atropisomer, axis not shown) [Compound I-11, (S)-7-((S)-5-Chloro-6-fluoro-2-phenyl-2-((S)-pyrrolidin-2-yl)-2,3-dihydrobenzofuran-4-yl)-8-fluoroimidazo[1,2-a]pyridine-6-carboxamide] the IC50 was under 50 nM.
